Like-named read-outs stand apart in the source and are kept apart here. Non-standard residues stand in square brackets, D forms with d. Residues, ends and D or L forms follow the SMILES beside them. *: point of attachment. X1 = C[C@]12CC[C@H]3[C@@H](CCC4=CC(=O)CC[C@@]43C)[C@@H]1CC[C@@H]2C(=O)COC(=O)CCC(=O)*; dPhe(4-Cl) = N[C@H](Cc1ccc(Cl)cc1)C(=O)O; dPhe(4-F) = N[C@H](Cc1ccc(F)cc1)C(=O)O; d2Nal = N[C@H](Cc1ccc2ccccc2c1)C(=O)O; d3Pal = N[C@H](Cc1cccnc1)C(=O)O; ΔPro = O=C(O)[C@@H]1C=CCN1
Key:
[1] = tested on: progesterone binding globulin (PBG); experiment: Plasma protein binding assay, competition with [3H]progesterone in pregnant guinea pig plasma; conditions: for IC50: read-out: IC50, inhibition of [3H]progesterone binding to PBG
Experimental: (§1) Plasma Protein Binding Assay
(§2) Plasma protein binding was determined by the competitive binding of steroid conjugates, in the presence of [1,2,6,7-^3H]progesterone or [^3H]cortisol, to pregnant guinea pig plasma or human pregnant serum respectively. 20 μl serum was diluted with 2 ml dextran-coated charcoal solution (0.25 g dextran T-70, 2.5 g charcoal decolorizing powder, activated acid washed [Merck Ltd., Lutterworth, Leicestershire] in 500 ml PBS) and incubated at room temperature. After 30 mins the suspension was centrifuged at 3000×g for 10 minutes, the supernatant was removed and the pellet was discarded. 100 μl of diluted serum was aliquoted into centrifuge tubes, followed by 1 pmol[^3H]steroid/100 μl PBS. 100 μl PBS (total binding) or 200 pmol/100 μl unlabelled competing ligand ([…]) was added to diluted serum in duplicate. Tubes were vortexed and incubated at room temperature for 1 hour, then for an additional 15 minutes on ice. A further 750 μl dextran-coated charcoal suspension was added and incubated for 10 minutes on ice, followed by centrifugation at 4° C. for 5 minutes. The supernatant fluid was counted.

[2] = target: T1, cortisol binding globulin (CBG) (Homo sapiens, UniProt P08185); experiment: Plasma protein binding assay, competition with [3H]cortisol in human pregnant serum; conditions: data not shown, read-out: IC50, prevention of [3H]cortisol binding
T1 construct: from tissue; host or cells: human pregnant serum (charcoal-stripped, diluted)
T1 sequence (P08185 23-405): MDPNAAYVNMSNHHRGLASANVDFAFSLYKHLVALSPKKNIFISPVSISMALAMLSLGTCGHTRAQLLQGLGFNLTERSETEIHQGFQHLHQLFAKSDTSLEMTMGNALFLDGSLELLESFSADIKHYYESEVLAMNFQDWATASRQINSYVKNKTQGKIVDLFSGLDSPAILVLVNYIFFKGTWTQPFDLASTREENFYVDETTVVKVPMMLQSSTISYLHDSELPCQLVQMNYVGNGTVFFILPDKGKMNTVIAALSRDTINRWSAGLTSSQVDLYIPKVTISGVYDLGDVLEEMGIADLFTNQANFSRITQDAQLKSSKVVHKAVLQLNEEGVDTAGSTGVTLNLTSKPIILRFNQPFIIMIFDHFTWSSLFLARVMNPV
Experimental: as §1, §2

[3] = tested on: male marmosets; experiment: In vivo male marmoset study, plasma testosterone after s.c. injection; design: species or system Callithrix jacchus; conditions: 0.5 mg s.c.
Experimental: (§3) In Vivo Studies in the Male and Female Common Marmoset (Callithrix Jacchus)
Male marmoset studies: To determine duration of action at GnRH receptor, 0.5 mg GnRH antagonist-steroid conjugate was administered as subcutaneous bolus in 1 ml saline at two sites in six adult male marmosets. Testosterone concentrations were monitored by RIA. GnRH antagonist (0.5 mg) was administered as a subcutaneous bolus in 1 ml saline at two sites in three marmosets. Testosterone concentrations were monitored. One 300 μl blood sample was withdrawn on the day prior to GnRH antagonist injection and at 0 hours, 4 hours and 8 hours on the day of injection and on the following 3 days. Three further samples were taken during the subsequent week.

[4] = tested on: cycling adult female marmosets; experiment: In vivo female marmoset study, inhibition of corpus luteum function; design: species or system Callithrix jacchus; conditions: one animal; for duration of the luteal phase after treatment: mid-luteal phase
Experimental: as §3
Female marmoset studies: To identify the effective dose required to inhibit corpus luteum function, 1.0, 0.5 or 0.25 mg of GnRH antagonist-steroid conjugate was administered as subcutaneous bolus in 1 ml saline at two sites during mid-luteal phase. Progesterone concentrations were monitored by RIA. One 300 μl blood sample was withdrawn on the day prior to GnRH antagonist injection. Further blood samples of equal size were withdrawn at 0, 4 and 8 hours on day of injection and on the following 3 days. Blood samples were taken three times per week until the next ovulation.

[5] = In vivo male rabbit study, disappearance of iodinated analogue from whole blood; conditions: rabbit, in vivo, iv
Experimental: In Vivo Studies in the Male Rabbit
To determine biological half-life of GnRH agonist-progesterone conjugates, 0.5 ml saline containing approximately 10,000,000 cpm of iodinated [D-Ala^6]GnRH or [D-Lys^6]GnRH-progesterone conjugate was injected as an i.v. bolus into the ear vein of a male rabbit. Rabbits were sedated with 0.4 ml Aceprom 10 (Milborrow Animal Health, Republic of South Africa) injected intramuscularly 3-4 minutes before start of experiment. A repeat injection was carried out after 2 hours. 1 ml blood samples were collected in heparinized tubes from an indwelling cannula placed in a vein of the contralateral ear. Whole blood was counted directly to determine disappearance from circulation. All experiments were carried out in accordance with Republic of South Africa regulations.

## C[C@]12CCC(=O)C=C1CC[C@@H]1[C@@H]2[C@@H](O)C[C@@]2(C)[C@H]1CC[C@]2(O)C(=O)CO [cortisol, reference compound]
[1]
  inhibition of specific [3H]progesterone binding (specificity): failure of cortisol to inhibit specific [^3H]progesterone binding
[2]
  IC50: 6.7 nM

## CC(=O)N[C@H](Cc1ccc2ccccc2c1)C(=O)N[C@H](Cc1ccc(Cl)cc1)C(=O)N[C@H](Cc1cccnc1)C(=O)N[C@@H](CO)C(=O)N[C@@H](CCCNC(=N)N)C(=O)N[C@H](CCCCNC(=O)CCC(=O)OCC(=O)[C@H]1CC[C@H]2[C@@H]3CCC4=CC(=O)CC[C@]4(C)[C@H]3CC[C@]12C)C(=O)N[C@@H](CC(C)C)C(=O)N[C@@H](CCCNC(=N)N)C(=O)N1CCC[C@H]1C(=O)N[C@H](C)C(N)=O [antagonist A-progesterone, AcD-Nal-D-Cpa-D-Pal-Ser-Arg-D-Lys-Leu-Arg-Pro-D-Ala-NH2 conjugated to 21-hydroxyprogesterone 21-succinate at the ε amine of D-Lys at position 6] (Ac-[d2Nal][dPhe(4-Cl)][d3Pal]SR[dK](X1)LRP[dA]-NH2)
[3]
  day by which testosterone had recovered: ≤ 6 days
  effect on plasma testosterone concentrations: rapidly decreased testosterone concentrations
  time to which reduction in testosterone concentration was maintained post-injection: at least 72 hours
[4]; 0.25 mg s.c.
  luteal regression and subsequent ovulation: full luteal regression and subsequent ovulation did not occur
  plasma progesterone concentrations: transient reduction in plasma progesterone concentrations
[4]; 0.5 mg s.c., before 21.0±1.2 days
  duration of the luteal phase after treatment: 11 days
[4]; 1.0 mg s.c., before 24.8±2.2 days
  duration of the luteal phase after treatment: 8 days
[1]; listed as antagonist A-progesterone conjugate
  IC50: 1000 nM
[1]; listed as antagonist peptide A-progesterone
  IC50: 850 nM

## CC(=O)N1CC=C[C@H]1C(=O)N[C@H](Cc1ccc(F)cc1)C(=O)N[C@H](Cc1c[nH]c2ccccc12)C(=O)N[C@@H](CO)C(=O)N[C@@H](Cc1ccc(O)cc1)C(=O)N[C@H](CCCCNC(=O)CCC(=O)OCC(=O)[C@H]1CC[C@H]2[C@@H]3CCC4=CC(=O)CC[C@]4(C)[C@H]3CC[C@]12C)C(=O)N[C@@H](CC(C)C)C(=O)N[C@@H](CCCNC(=N)N)C(=O)N1CCC[C@H]1C(=O)NCC(N)=O [antagonist B-progesterone, Ac-ΔPro-D-Fpa-D-Trp-Ser-Tyr-D-Lys-Leu-Arg-Pro-Gly-NH2 conjugated to 21-hydroxyprogesterone 21-succinate at the ε amine of D-Lys at position 6] (Ac-[ΔPro][dPhe(4-F)][dW]SY[dK](X1)LRPG-NH2)
[1]; listed as antagonist B-progesterone conjugate
  IC50: 530 nM
[1]; listed as antagonist peptide B-progesterone
  IC50: 450 nM

## CC(=O)[C@H]1CC[C@H]2[C@@H]3CCC4=CC(=O)CC[C@]4(C)[C@H]3CC[C@]12C [progesterone, reference compound]
[1]
  IC50: 96 nM
[2]
  IC50: 73 nM

## [D-Ala^6]GnRH [reference compound]
[5]
  second phase half-life (metabolism and renal clearance): 21 ± 3 min

## CC(=O)N[C@H](Cc1ccc2ccccc2c1)C(=O)N[C@H](Cc1ccc(Cl)cc1)C(=O)N[C@H](Cc1cccnc1)C(=O)N[C@@H](CO)C(=O)N[C@@H](CCCNC(=N)N)C(=O)N[C@H](CCCCN)C(=O)N[C@@H](CC(C)C)C(=O)N[C@@H](CCCNC(=N)N)C(=O)N1CCC[C@H]1C(=O)N[C@H](C)C(N)=O [antagonist A, [AcD-Nal^1,D-Cpa^2,D-Pal^3,Arg^5,D-Lys^6,D-Ala^10]GnRH, reference compound] (Ac-[d2Nal][dPhe(4-Cl)][d3Pal]SR[dK]LRP[dA]-NH2)
[3]
  effect on plasma testosterone concentrations: rapid decline in plasma testosterone concentrations
  time by which testosterone had increased again: ≤ 24 h
  time to which reduction in testosterone concentration was maintained post-injection: 8 h

Reference: patent US7700559B2, “Gonadotropin releasing hormone analogues conjugates with steroid hormones” (Medical Research Council, priority 2003, dated 2010)
